From ChEMBL document CHEMBL5233209, “A concise review of recent advances in anti-heart failure targets and its small molecules inhibitors in recent years” (Eur J Med Chem, 2020)
pIC50: −log10 of the molar value.

What was measured:
[1] = Tmax in human plasma; assay type: ADME, cell-free
[2] = Half life in human; assay type: ADME
[3] = biological target: cGMP-specific 3',5'-cyclic phosphodiesterase (Homo sapiens, UniProt O76074); test: Inhibition of PDE-5A (unknown origin)
[4] = biological target: Neprilysin (Homo sapiens, UniProt P08473); test: Inhibition of neutral endopeptidase (unknown origin)
Sequence of Neprilysin (P08473 whole entry): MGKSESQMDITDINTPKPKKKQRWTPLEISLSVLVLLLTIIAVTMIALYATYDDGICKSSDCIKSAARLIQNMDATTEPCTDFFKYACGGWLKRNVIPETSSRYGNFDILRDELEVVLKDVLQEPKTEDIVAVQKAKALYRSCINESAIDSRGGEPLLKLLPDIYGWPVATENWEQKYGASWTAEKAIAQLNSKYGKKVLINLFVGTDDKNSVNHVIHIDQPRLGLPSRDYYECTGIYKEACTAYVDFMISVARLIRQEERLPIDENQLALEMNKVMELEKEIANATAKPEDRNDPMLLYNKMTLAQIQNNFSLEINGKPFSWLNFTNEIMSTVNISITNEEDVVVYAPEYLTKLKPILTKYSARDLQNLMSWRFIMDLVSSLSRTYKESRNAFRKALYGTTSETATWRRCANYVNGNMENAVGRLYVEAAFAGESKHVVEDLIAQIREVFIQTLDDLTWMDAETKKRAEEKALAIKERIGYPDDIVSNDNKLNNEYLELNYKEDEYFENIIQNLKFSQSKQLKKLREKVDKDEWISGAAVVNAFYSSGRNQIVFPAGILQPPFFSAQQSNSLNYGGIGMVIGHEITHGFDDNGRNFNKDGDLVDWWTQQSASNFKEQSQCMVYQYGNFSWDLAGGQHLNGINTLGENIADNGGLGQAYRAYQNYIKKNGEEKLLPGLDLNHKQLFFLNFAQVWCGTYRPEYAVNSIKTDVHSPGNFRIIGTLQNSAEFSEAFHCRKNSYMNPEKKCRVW

Compound | Tmax [1] | half-life [2] | IC50 [3] | further results
CC(C)=CCc1c(O)c2c(c3c1OC(C)(C)C=C3)CC=C(c1ccc3c(c1)OCCO3)C2=O |  |  | 2.67 µmol | 
CC(C)=CCC1=C(O)c2c(occ(-c3ccc(O[N+](=O)[O-])cc3)c2=O)C2C=CC(C)(C)OC12 (configuration not stated) |  |  | 0.5 µmol | 
CCCCC(=O)N(Cc1ccc(-c2ccccc2-c2nnn[n-]2)cc1)[C@H](C(=O)[O-])C(C)C.CCOC(=O)[C@H](C)C[C@@H](Cc1ccc(-c2ccccc2)cc1)NC(=O)CCC(=O)[O-].O.O.[Na+].[Na+].[Na+] |  |  |  | pIC50 [4]: 8.30
C[C@H](C[C@@H](Cc1ccc(-c2ccccc2)cc1)NC(=O)CCC(=O)O)C(=O)O [LBQ-657] |  | 21 h |  | 

More lines, main results first:

Tmax [1] | half-life [2] | IC50 [3] | Compound | further results
1.6 h | 12 h |  | CCCCC(=O)N(Cc1ccc(-c2ccccc2-c2nnn[nH]2)cc1)[C@H](C(=O)O)C(C)C | 
0.5 h |  |  | CCOC(=O)[C@H](C)C[C@@H](Cc1ccc(-c2ccccc2)cc1)NC(=O)CCC(=O)O [SACUBITRIL] | 
